Experimental findings from patent US12459951B2, “Compounds that interact with RAS superfamily proteins for treatment of cancers, inflammatory diseases, rasopathies, and fibrotic disease” (SHY Therapeutics, LLC, priority 2022, dated 2025) are described below.

One may read the IC50 as the concentration that inhibits the measured activity by half. In general, solubility refers to how much of the substance goes into solution per volume.

A value given as a limit tells only on which side of the number the result lay.

One series has as its system A375 (wild type Kras). As to the kind of experiment: Proliferation Assay (Cell Viability Assay). It counts as cell-based. The settings on record: Homo sapiens, A-375; Proliferation assay, A375; read-out: A375 IC50 (nM) Melanoma. A digest of the protocol: (§1)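 Cells plated at 2000–5000/well overnight, then treated 2–4 days at 37 °C, 5% CO2 with compound at 10 μM single dose or serial dilutions for IC50, in 0.3% DMSO and 10% FBS. Viability read by CellTiter 96 Aqueous One (MTS); % proliferation inhibition calculated from raw data.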

Series [1] relates to BT-549 (expressing wild type KRAS). Nature of the series: Proliferation Assay (Cell Viability Assay). Format: cell-based. As to conditions: Homo sapiens, BT-549; Proliferation assay, BT549; read-out: BT549 IC50 (nM) TNBC. A digest of the protocol:
as §1

The test system of series [2] is NCI-H358 (expressing KRas G12C mutant). As to the kind of experiment: Proliferation Assay (Cell Viability Assay). Format: cell-based. As to conditions: Homo sapiens; Proliferation assay, NCI-H358; read-out: NCI-H358 IC50 (nM) NSCLC. An outline of the steps: as §1
Series [3] can be described thus: Kinetic Solubility Assay in pH 7.4 Buffer + 2% DMSO. It counts as physicochemical. As to conditions: phosphate-buffered saline pH 7.4 with 2% DMSO, aqueous buffer, kinetic from dmso stock, 25° C., two hours. A digest of the protocol: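 Compound from 20 mM DMSO stock diluted to nominal 400 μM in PBS pH 7.4 with 2% DMSO, in duplicate, shaken 2 h at 25° C., then filtered. Filtrate quantified by UV absorbance (230-550 nm) against 10-200 μM calibration curves; effective range ~2-400 μM.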

Regarding `Cc1c(-c2ccn(C(C)C)n2)cn2nc(-c3nccn3C)nc(Nc3cc4n(n3)CCO4)c12` [Compound 91, N-(6-(1-Isopropyl-1H-pyrazol-3-yl)-5-methyl-2-(1-methyl-1H-imidazol-2-yl)pyrrolo[2,1-f][1,2,4]triazin-4-yl)-2,3-dihydropyrazolo[5,1-b]oxazol-6-amine], the half-inhibitory concentration (IC50) (in the series with A375 (wild type Kras); in series [1]; in series [2]) was 1 to 10 nM each time. The solubility at 2 h in series [3] was over 30 µM.

On to `Cc1c(-c2ccn(C(C)C)n2)cn2nc(-c3nccn3C)nc(Nc3ccn(C4CC4)n3)c12` [Compound 84, N-(1-Cyclopropyl-1H-pyrazol-3-yl)-6-(1-isopropyl-1H-pyrazol-3-yl)-5-methyl-2-(1-methyl-1H-imidazol-2-yl)pyrrolo[2,1-f][1,2,4]triazin-4-amine], for which the IC50 (in the series on A375 (wild type Kras); in series [1]; in series [2]) was 1 to 10 nM throughout. Besides, the solubility at 2 h in series [3] is 10 to 30 µM.
